Earlier results on one molecule are cited in patent US12533388B2, “Compositions and methods for prevention and treatment of immune deficiency and inflammation” (The United States GOVERNMENT As Represented By The …, priority 2020, dated 2026).

Series [1] relates to STZ-induced diabetic mice. The conditions noted are these: as compared to the STZ-induced diabetic control group without CHP treatment.
For series [2], the system named is rat insulinoma cells (RINm5F). The conditions noted are these: in vitro.
In a further series the test system is Saccharomyces cerevisae. The conditions noted are these: by inhibiting chitinase.

The structures appear in SMILES notation.

Take `O=C1N[C@@H](Cc2cnc[nH]2)C(=O)N2CCC[C@@H]12` [CHP, Cyclo (His-Pro)]: in series [1], the “Oral glucose tolerance test (OGTT) values” is on record as “significantly decreased” and the “plasma glucose levels dropped” value is listed as 60%. Also, in series [2], the “STZ-induced cytotoxicity and apoptosis” value is given as “prevented”. Besides, the “growth of Saccharomyces cerevisae” value in the series with Saccharomyces cerevisae is on record as “inhibit”.
